Results reported in patent publication US11613527B2, “Enzyme inhibitors” (KalVista Pharmaceuticals Limited, priority 2019, dated 2023).

Legend:
Type in all cases: biochemical
Human KLK1 = Human KLK1 (Homo sapiens (Human), UniProt P06870); assay: Determination of the IC50 for KLK1 (fluorogenic substrate H-DVal-Leu-Arg-AFC)
Method: Selected compounds were further screened for inhibitory activity against the related enzyme KLK1. The ability of the compounds of formula (I) to inhibit KLK1 may be determined using the following biological assay:
Determination of the IC50 for KLK1
(§1) KLK1 inhibitory activity in vitro was determined using standard published methods (see e.g. Johansen et al., Int. J. Tiss. Reac. 1986, 8, 185; Shori et al., Biochem. Pharmacol., 1992, 43, 1209; Sturzebecher et al., Biol. Chem. Hoppe-Seyler, 1992, 373, 1025). Human KLK1 (Callbiochem) was incubated at 25° C. with the fluorogenic substrate H-DVal-Leu-Arg-AFC and various concentrations of the test compound. Residual enzyme activity (initial rate of reaction) was determined by measuring the change in optical absorbance at 410 nm and the IC50 value for the test compound was determined.

Human plasma kallikrein = Human plasma kallikrein (Homo sapiens (Human), UniProt P03952); assay: Determination of the IC50 for plasma kallikrein (fluorogenic substrate H-DPro-Phe-Arg-AFC); conditions: class symbols A-D, read-out: IC50 (human PKal)
Sequence of Human plasma kallikrein (P03952 391-638): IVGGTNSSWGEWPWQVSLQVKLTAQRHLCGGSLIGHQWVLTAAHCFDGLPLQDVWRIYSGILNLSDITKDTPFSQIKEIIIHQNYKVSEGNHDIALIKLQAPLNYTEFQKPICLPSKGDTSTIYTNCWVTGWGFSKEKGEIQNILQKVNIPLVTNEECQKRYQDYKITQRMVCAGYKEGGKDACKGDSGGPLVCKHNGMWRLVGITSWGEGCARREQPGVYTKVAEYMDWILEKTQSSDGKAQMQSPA
Sequence of Human plasma kallikrein (P03952 20-390 partner): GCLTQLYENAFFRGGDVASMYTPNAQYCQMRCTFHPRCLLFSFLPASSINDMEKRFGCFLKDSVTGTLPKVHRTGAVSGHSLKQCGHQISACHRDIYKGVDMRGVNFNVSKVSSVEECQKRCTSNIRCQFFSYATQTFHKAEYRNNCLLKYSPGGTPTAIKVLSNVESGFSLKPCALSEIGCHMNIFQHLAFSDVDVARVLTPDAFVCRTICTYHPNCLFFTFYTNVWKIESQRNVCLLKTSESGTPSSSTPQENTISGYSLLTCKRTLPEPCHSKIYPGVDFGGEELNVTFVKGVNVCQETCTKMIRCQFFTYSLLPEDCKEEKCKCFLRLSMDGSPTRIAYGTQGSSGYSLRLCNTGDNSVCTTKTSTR
Method: The ability of the compounds of formula (I) to inhibit plasma kallikrein may be determined using the following biological assay:
Determination of the IC50 for Plasma Kallikrein
as §1, with “Plasma kallikrein” for “KLK1”, “plasma kallikrein (Protogen)” for “KLK1 (Callbiochem)”, “H-DPro-Phe-Arg-AFC” for “H-DVal-Leu-Arg-AFC”

Human FXIa = Human FXIa (Homo sapiens (Human), UniProt P03951); assay: Determination of the % inhibition for FXIa (fluorogenic substrate Z-Gly-Pro-Arg-AFC; 40 μM or IC50)
Sequence of Human FXIa (P03951 388-625): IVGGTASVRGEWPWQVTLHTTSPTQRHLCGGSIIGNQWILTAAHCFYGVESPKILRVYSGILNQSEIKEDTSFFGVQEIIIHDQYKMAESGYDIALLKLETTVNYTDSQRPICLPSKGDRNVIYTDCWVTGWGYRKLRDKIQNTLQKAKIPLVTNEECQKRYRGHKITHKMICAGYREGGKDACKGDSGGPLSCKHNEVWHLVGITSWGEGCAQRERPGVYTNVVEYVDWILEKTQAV
Sequence of Human FXIa (P03951 19-387 partner): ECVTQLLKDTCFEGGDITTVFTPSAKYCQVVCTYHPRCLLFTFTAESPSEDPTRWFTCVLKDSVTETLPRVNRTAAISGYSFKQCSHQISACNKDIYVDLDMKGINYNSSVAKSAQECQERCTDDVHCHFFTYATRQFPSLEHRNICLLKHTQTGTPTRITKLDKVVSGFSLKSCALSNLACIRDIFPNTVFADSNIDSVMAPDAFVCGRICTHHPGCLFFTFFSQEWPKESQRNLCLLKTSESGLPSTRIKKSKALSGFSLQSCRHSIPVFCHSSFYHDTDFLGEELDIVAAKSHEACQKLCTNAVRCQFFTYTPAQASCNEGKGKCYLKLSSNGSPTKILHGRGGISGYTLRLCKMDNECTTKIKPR
Method: Selected compounds were further screened for inhibitory activity against the related enzyme FXIa. The ability of the compounds of formula (I) to inhibit FXIa may be determined using the following biological assay:
Determination of the % Inhibition for FXIa
FXIa inhibitory activity in vitro was determined using standard published methods (see e.g. Johansen et al., Int. J. Tiss. Reac. 1986, 8, 185; Shori et al., Biochem. Pharmacol., 1992, 43, 1209; Sturzebecher et al., Biol. Chem. Hoppe-Seyler, 1992, 373, 1025). Human FXIa (Enzyme Research Laboratories) was incubated at 25° C. with the fluorogenic substrate Z-Gly-Pro-Arg-AFC and 40 μM of the test compound (or alternatively at various concentrations of the test compound in order to determine IC50). Residual enzyme activity (initial rate of reaction) was determined by measuring the change in optical absorbance at 410 nm and the IC50 value for the test compound was determined.

Sequence of Human KLK1 (P06870 25-262): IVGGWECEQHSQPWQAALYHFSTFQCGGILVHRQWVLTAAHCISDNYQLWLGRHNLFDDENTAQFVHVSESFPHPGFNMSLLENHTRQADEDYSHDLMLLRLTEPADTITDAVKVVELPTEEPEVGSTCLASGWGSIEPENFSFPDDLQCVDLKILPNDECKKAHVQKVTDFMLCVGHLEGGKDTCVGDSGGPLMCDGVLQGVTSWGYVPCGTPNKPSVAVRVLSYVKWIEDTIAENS

Row | IC50 (Human KLK1) [nM] | IC50 (Human plasma kallikrein) [nM] | IC50 (Human FXIa) [nM] | SMILES
1 | > 40000 | 30 to 100 | > 40000 | COCc1nn(Cc2cc(F)cc3c2CCN(C)C3)cc1C(=O)NCc1c(-n2cc(C)nn2)ccc(OC)c1F [Example 103, 1-[(7-fluoro-2-methyl-3,4-dihydro-1H-isoquinolin-5-yl)methyl]-N-{[2-fluoro-3-methoxy-6-(4-methyl-1,2,3-triazol-1-yl)phenyl]methyl}-3-(methoxymethyl)pyrazole-4-carboxamide]
2 | > 40000 | 100 to 1000 | > 40000 | COc1ccc(-n2cc(C)nn2)c(CNC(=O)c2ccn(Cc3ccc4c(c3)CN(C)CC4)c(=O)c2)c1F [Example 159, N-{[2-fluoro-3-methoxy-6-(4-methyl-1,2,3-triazol-1-yl)phenyl]methyl}-1-[(2-methyl-3,4-dihydro-1H-isoquinolin-7-yl)methyl]-2-oxopyridine-4-carboxamide]
3 | > 40000 | 30 to 100 | > 40000 | COCc1nn(Cc2ccc3c(c2)CCN(C2CC2)C3)cc1C(=O)NCc1c(-n2cnc(C(F)F)n2)ccc(OC)c1F [Example 47, 1-[(2-cyclopropyl-3,4-dihydro-1H-isoquinolin-6-yl)methyl]-N-({6-[3-(difluoromethyl)-1,2,4-triazol-1-yl]-2-fluoro-3-methoxyphenyl}methyl)-3-(methoxymethyl)pyrazole-4-carboxamide]
4 | > 40000 | 10 to 30 | > 40000 | COCc1nn(Cc2ccc3c(c2)CCN(C2CC2)C3)cc1C(=O)NCc1c(-n2ccc(C#N)n2)ccc(OC)c1F [Example 49, N-{[6-(3-cyanopyrazol-1-yl)-2-fluoro-3-methoxyphenyl]methyl}-1-[(2-cyclopropyl-3,4-dihydro-1H-isoquinolin-6-yl)methyl]-3-(methoxymethyl)pyrazole-4-carboxamide]
5 | > 40000 | < 10 | > 40000 | CCc1ncn(-c2ccc(OC)c(F)c2CNC(=O)c2cn(Cc3ccc4c(c3)CN(C)CC4)nc2COC)n1 [Example 6, N-{[6-(3-ethyl-1,2,4-triazol-1-yl)-2-fluoro-3-methoxyphenyl]methyl}-3-(methoxymethyl)-1-[(2-methyl-3,4-dihydro-1H-isoquinolin-7-yl)methyl]pyrazole-4-carboxamide]
6 | > 40000 | 30 to 100 | > 40000 | COc1ccc(-n2cc(C)nn2)c(CNC(=O)c2cn(Cc3cn4c(n3)CN(C)CC4)nc2C(F)(F)F)c1F [Example 61, N-{[2-fluoro-3-methoxy-6-(4-methyl-1,2,3-triazol-1-yl)phenyl]methyl}-1-({7-methyl-5H,6H,8H-imidazo[1,2-a]pyrazin-2-yl}methyl)-3-(trifluoromethyl)pyrazole-4-carboxamide]
7 | > 4000 | < 10 | > 4000 | COCc1nn(Cc2cc(F)c3c(c2)CCN(C)C3)cc1C(=O)NCc1c(-n2cc(C)nn2)ccc(OC)c1F [Example 116, 1-[(8-fluoro-2-methyl-3,4-dihydro-1H-isoquinolin-6-yl)methyl]-N-{[2-fluoro-3-methoxy-6-(4-methyl-1,2,3-triazol-1-yl)phenyl]methyl}-3-(methoxymethyl)pyrazole-4-carboxamide]
8 | > 40000 | 10 to 30 | 16300 | COCc1nn(Cc2ccc3c(c2)CCN(C)C3=O)cc1C(=O)NCc1c(-n2cc(C)nn2)ccc(OC)c1F [Example 135, N-{[2-fluoro-3-methoxy-6-(4-methyl-1,2,3-triazol-1-yl)phenyl]methyl}-3-(methoxymethyl)-1-[(2-methyl-1-oxo-3,4-dihydroisoquinolin-6-yl)methyl]pyrazole-4-carboxamide]
9 | > 40000 | 10 to 30 | > 40000 | COCc1nn(Cc2ccc3c(c2F)CCN(C)C3)cc1C(=O)NCc1c(-n2cc(C)nn2)ccc(OC)c1F [Example 114, 1-[(5-fluoro-2-methyl-3,4-dihydro-1H-isoquinolin-6-yl)methyl]-N-{[2-fluoro-3-methoxy-6-(4-methyl-1,2,3-triazol-1-yl)phenyl]methyl}-3-(methoxymethyl)pyrazole-4-carboxamide]
10 | > 40000 | 10 to 30 | > 40000 | COCc1nn(Cc2ccc3c(c2)CN(C)CC3(C)C)cc1C(=O)NCc1c(-n2cc(C)nn2)ccc(OC)c1F [Example 134, N-{[2-fluoro-3-methoxy-6-(4-methyl-1,2,3-triazol-1-yl)phenyl]methyl}-3-(methoxymethyl)-1-[(2,4,4-trimethyl-1,3-dihydroisoquinolin-7-yl)methyl]pyrazole-4-carboxamide]
11 | > 40000 | < 10 | 30000 | COCc1nn(Cc2ccc3c(c2)C(F)(F)CN(C)C3)cc1C(=O)NCc1c(-n2cc(C)nn2)ccc(OC)c1F [Example 105, 1-[(4,4-difluoro-2-methyl-1,3-dihydroisoquinolin-6-yl)methyl]-N-{[2-fluoro-3-methoxy-6-(4-methyl-1,2,3-triazol-1-yl)phenyl]methyl}-3-(methoxymethyl)pyrazole-4-carboxamide]
12 | – | 30 to 100 | – | COCc1nn(Cc2ccc3c(c2)C(C)(C)NCC3)cc1C(=O)NCc1c(-n2cc(C)nn2)ccc(OC)c1F [Example 128, 1-[(1,1-dimethyl-3,4-dihydro-2H-isoquinolin-7-yl)methyl]-N-{[2-fluoro-3-methoxy-6-(4-methyl-1,2,3-triazol-1-yl)phenyl]methyl}-3-(methoxymethyl)pyrazole-4-carboxamide]
13 | > 40000 | < 10 | > 40000 | CCN1CCc2cc(Cn3cc(C(=O)NCc4c(-n5ccc(C#N)n5)ccc(OC)c4F)c(COC)n3)ccc2C1 [Example 52, N-{[6-(3-cyanopyrazol-1-yl)-2-fluoro-3-methoxyphenyl]methyl}-1-[(2-ethyl-3,4-dihydro-1H-isoquinolin-6-yl)methyl]-3-(methoxymethyl)pyrazole-4-carboxamide]
14 | – | 10 to 30 | – | COCc1nn(Cc2ccc3c(c2)CNCC3(C)C)cc1C(=O)NCc1c(-n2cc(C)nn2)ccc(OC)c1F [Example 130, 1-[(4,4-dimethyl-2,3-dihydro-1H-isoquinolin-7-yl)methyl]-N-{[2-fluoro-3-methoxy-6-(4-methyl-1,2,3-triazol-1-yl)phenyl]methyl}-3-(methoxymethyl)pyrazole-4-carboxamide]
15 | – | < 10 | – | COc1ccc(-n2cc(C)nn2)c(CNC(=O)c2cn(Cc3ccc4c(c3)CN(C)CC4)nc2C(F)F)c1F [Example 33, 3-(difluoromethyl)-N-{[2-fluoro-3-methoxy-6-(4-methyl-1,2,3-triazol-1-yl)phenyl]methyl}-1-[(2-methyl-3,4-dihydro-1H-isoquinolin-7-yl)methyl]pyrazole-4-carboxamide]
16 | – | 10 to 30 | – | COCc1nn(Cc2ccc3c(c2)C(C)(C)N(C)CC3)cc1C(=O)NCc1c(-n2cc(C)nn2)ccc(OC)c1F [Example 129, N-{[2-fluoro-3-methoxy-6-(4-methyl-1,2,3-triazol-1-yl)phenyl]methyl}-3-(methoxymethyl)-1-[(1,1,2-trimethyl-3,4-dihydroisoquinolin-7-yl)methyl]pyrazole-4-carboxamide]
17 | – | 10 to 30 | – | COc1ccc(-n2cc(C)nn2)c(CNC(=O)c2cn(Cc3ccc4c(n3)CN(C)CC4)nc2C(F)(F)F)c1F [Example 131, N-{[2-fluoro-3-methoxy-6-(4-methyl-1H-1,2,3-triazol-1-yl)phenyl]methyl}-1-[(7-methyl-5,6,7,8-tetrahydro-1,7-naphthyridin-2-yl)methyl]-3-(trifluoromethyl)-1H-pyrazole-4-carboxamide]
